From the NIST ThermoML archive (doi:10.1016/j.jct.2015.10.018)
Numbers after ± are expanded uncertainties.

Assays:
[1] = 298.15 K; 101.33 kPa; Liquid; Vibrating tube method
[2] = refractive index (Na D-line) (dimensionless); settings: 298.15 K; 101.33 kPa; Liquid; Standard Abbe refractometry

CCn1cc[n+](C)c1.N#CN=C=[N-] [1-ethyl-3-methylimidazolium dicyanamide]
mass density [1]: 1102.03 ± 1.1 kg/m3
refractive index [2]: 1.51452 ± 0.00051

C1CCCCC1 [cyclohexane]
mass density [1]: 773.88 ± 0.17 kg/m3
refractive index [2]: 1.42356 ± 0.00033

CCCCCCC [heptane]
mass density [1]: 679.57 ± 0.25 kg/m3
refractive index [2]: 1.38529 ± 0.00037

Cc1ccccc1 [toluene]
mass density [1]: 862.23 ± 0.13 kg/m3
refractive index [2]: 1.49398 ± 0.00031
